Measurements: patent US4897402A, “5-oxa, 5-thia, 5-aza HmG-CoA reductase inhibitors” (Merck & Co., Inc., priority 1988, dated 1990)

Target: T1, HMG-CoA reductase (Rattus norvegicus, UniProt P51639)
T1 sequence (P51639 1-887): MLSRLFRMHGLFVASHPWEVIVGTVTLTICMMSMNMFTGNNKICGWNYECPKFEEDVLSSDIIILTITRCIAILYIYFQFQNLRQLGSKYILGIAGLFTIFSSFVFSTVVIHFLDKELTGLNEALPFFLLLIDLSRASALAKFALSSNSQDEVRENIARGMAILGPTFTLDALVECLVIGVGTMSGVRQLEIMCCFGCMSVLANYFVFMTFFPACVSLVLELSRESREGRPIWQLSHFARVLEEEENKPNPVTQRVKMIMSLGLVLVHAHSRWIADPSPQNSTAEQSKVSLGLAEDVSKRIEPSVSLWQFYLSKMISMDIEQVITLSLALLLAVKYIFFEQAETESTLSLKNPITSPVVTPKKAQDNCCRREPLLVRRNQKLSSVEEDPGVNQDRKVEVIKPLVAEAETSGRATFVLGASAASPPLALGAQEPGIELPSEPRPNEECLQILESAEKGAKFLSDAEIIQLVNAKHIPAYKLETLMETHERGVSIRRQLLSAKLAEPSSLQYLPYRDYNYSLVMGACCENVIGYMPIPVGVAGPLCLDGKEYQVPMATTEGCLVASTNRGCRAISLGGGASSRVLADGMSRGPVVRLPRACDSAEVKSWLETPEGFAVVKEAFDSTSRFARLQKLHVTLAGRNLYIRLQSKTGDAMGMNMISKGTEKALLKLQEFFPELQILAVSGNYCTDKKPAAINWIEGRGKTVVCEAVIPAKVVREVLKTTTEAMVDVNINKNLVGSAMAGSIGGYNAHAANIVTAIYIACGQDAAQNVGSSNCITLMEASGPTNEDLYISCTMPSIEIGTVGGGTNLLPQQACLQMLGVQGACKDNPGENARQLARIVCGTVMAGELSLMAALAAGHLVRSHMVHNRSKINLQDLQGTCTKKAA
Test: intrinsic HMG-CoA reductase inhibition, in vitro protocol of J. Med. Chem., 28, p. 347-358 (1985)
Format: biochemical
Details: IC50 of test compound compared with that of compactin (mevastatin) determined simultaneously; compactin assigned a value of 100
Experimental: The intrinsic HMG--CoA reductase inhibition activity of the claimed compounds is measured in the in vitro protocol published in J. Med. Chem., 28, p. 347-358 (1985).
For estimation of relative inhibitory potencies, compactin (i.e., mevastatin) was assigned a value of 100 and the IC50 value of the test compound was compared with that of compactin determined simultaneously in the published in vitro protocol.
Representative of the intrinsic HMG-CoA reductase inhibitory activities of the claimed compounds are the following potencies.

Relative Potency	Structure (SMILES)
96	CCC(C)(C)C(=O)O[C@H]1CC(C)(C)O[C@@H]2CC[C@H](C)[C@H](CC[C@@H]3C[C@@H](O)CC(=O)O3)[C@@H]12 [Compound 9, 6(R) [2-[8(S)-(2,2-dimethylbutyryloxy)-2(S)-methyl-5-oxa-6,6-dimethyl-1,2,3,4,4a(R),7,8,8a(R)-octahydronaphthyl-1(S)]ethyl]-4(R)-hydroxy-3,4,5,6-tetrahydro-2H-pyran-2-one]
258	CCC(C)(C)C(=O)O[C@H]1C[C@@](C)(CSc2ccccc2)O[C@@H]2CC[C@H](C)[C@H](CC[C@@H]3C[C@@H](O)CC(=O)O3)[C@@H]12 [Compound 10, 6(R)-[2-[8(S)-(2,2-dimethylbutyryloxy)-2(S)-methyl-5-oxa-6(S)-(phenylthiomethyl, methyl)-1,2,3,4,4a(R),7,8,8a(R)-octahydronaphthyl-1(S)]ethyl]4(R)-hydroxy 3,4,5,6-tetrahydro-2H-pyran-2-one]
280	CCC(C)(C)C(=O)O[C@H]1C[C@](C)(CSc2ccccc2)O[C@@H]2CC[C@H](C)[C@H](CC[C@@H]3C[C@@H](O)CC(=O)O3)[C@@H]12 [Compound 11, 6(R)-[2-[8(S)-(2,2-dimethylbutyryloxy)-2(S)-methyl-5-oxa-6(R)-(phenylthiomethyl, methyl)-1,2,3,4,4a(R),7,-8,8a(R)-octahydronaphthyl-1(S)]ethyl]-4-(R)-hydroxy 3,4,5,6-tetrahydro-2H-pyran-2-one]
